# Assay results reported in US9492437B2, “Otamixaban for treatment of elderly and renal impaired non-ST elevation myocardial infarction patients” (SANOFI, priority 2009, dated 2016).
# Assays:
# [1] = test system: patients with Unstable angina/Non ST segment Elevation Myocardial infarction; assay: randomized, double-blind triple-dummy trial, efficacy (endpoint of the study: all-cause death and new myocardial infarction); format: in vivo, human
# From the text: The following results are based on a randomized, double-blind triple-dummy trial to compare otamixaban to Unfractionated Heparin+eptifibatide, in patients with Unstable angina/Non ST segment Elevation Myocardial infarction scheduled to undergo an early invasive strategy.
# Patient with non STE-segment elevation Acute Coronary Syndrome with the following symptoms: […]
# UFH: 60 IU/Kg as IV bolus ([…]) followed by an IV infusion of 12 U/Kg/h (max 1000 IU/h) to maintain a PTT at 1.5 to 2.0 times control and at the time of the PCI additional boluses needed if the ACT is not in the range of 200-250 seconds. NB: In order for the study to be blinded, all aPTTs and ACTs performed in order to adjust Drug B (UFH/placebo) dosing will be performed using an encrypted Hemochron Signature Elite machine (or as a back-up, a local device with a third-party unblinded healthcare professional).
# Eptifibatide: a single bolus of 180 mcg/kg followed by an infusion of 2 mcg/kg/min. In patients with CrCl<50 mL/min the infusion rate will be decreased to 1 mcg/kg/min.
# Primary endpoint: Adjudicated composite of all-cause death and new myocardial infarction (MI) within 7 days following randomization
# The events will be adjudicated by a blinded independent adjudication committee. Since the goal of treating acute ACS without persistent ST segment elevation is to prevent associated morbidity and mortality, death and myocardial infarction are considered to be the clinically most meaningful endpoints in therapeutic studies, whereas recurrent ischemia or refractory angina is of more uncertain clinical relevance (EMEA/CPCP/EWP/570/98; February 2008).
# The primary endpoint has been defined as the double clinical efficacy endpoint (all cause death and Myocardial Infarction based on centrally adjudicated data) that will be assessed at Day 7. Further estimation of this endpoint will be done at Day 30, Day 90 and Day 180 (end of the follow up) to check persistence of effect as recommended by the EMEA guideline (EMEA/CPCP/EWP/570/98; February 2008).
# Myocardial Infarction is considered to be a hard component of a combined efficacy endpoint for confirmatory clinical trials. The definition of Myocardial Infarction will be based on ACC/AHA, ESC and WHF consensus (J Am Coll Cardiol, 2007; 50:2173-2195; Eur Heart J, 2007, 28: 2525-2538): […]
# [2] = test system: thrombosis; conditions: canine; cited from earlier work
# [3] = molecular target: factor Xa assembled in the prothrombinase complex (Factor Xa, Factor Va, calcium and phospholipid) (Homo sapiens, UniProt P00742); conditions: cited from earlier work
# Sequence of factor Xa assembled in the prothrombinase complex (Factor Xa, Factor Va, calcium and phospholipid) (P00742 235-488 limits assumed): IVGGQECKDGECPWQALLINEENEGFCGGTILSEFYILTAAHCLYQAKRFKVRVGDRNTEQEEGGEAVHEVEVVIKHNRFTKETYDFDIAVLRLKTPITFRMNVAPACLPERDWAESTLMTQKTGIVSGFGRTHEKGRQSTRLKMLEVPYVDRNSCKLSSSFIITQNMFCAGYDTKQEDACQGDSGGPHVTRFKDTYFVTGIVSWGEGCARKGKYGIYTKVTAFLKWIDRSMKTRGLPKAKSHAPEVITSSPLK
# Sequence of factor Xa assembled in the prothrombinase complex (Factor Xa, Factor Va, calcium and phospholipid) (P00742 41-179 limits assumed): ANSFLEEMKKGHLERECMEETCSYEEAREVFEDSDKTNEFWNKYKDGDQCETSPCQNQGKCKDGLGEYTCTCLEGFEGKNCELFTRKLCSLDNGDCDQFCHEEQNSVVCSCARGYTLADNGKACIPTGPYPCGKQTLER
# Sequence of factor Xa assembled in the prothrombinase complex (Factor Xa, Factor Va, calcium and phospholipid) (P12259 29-737 partner limits assumed): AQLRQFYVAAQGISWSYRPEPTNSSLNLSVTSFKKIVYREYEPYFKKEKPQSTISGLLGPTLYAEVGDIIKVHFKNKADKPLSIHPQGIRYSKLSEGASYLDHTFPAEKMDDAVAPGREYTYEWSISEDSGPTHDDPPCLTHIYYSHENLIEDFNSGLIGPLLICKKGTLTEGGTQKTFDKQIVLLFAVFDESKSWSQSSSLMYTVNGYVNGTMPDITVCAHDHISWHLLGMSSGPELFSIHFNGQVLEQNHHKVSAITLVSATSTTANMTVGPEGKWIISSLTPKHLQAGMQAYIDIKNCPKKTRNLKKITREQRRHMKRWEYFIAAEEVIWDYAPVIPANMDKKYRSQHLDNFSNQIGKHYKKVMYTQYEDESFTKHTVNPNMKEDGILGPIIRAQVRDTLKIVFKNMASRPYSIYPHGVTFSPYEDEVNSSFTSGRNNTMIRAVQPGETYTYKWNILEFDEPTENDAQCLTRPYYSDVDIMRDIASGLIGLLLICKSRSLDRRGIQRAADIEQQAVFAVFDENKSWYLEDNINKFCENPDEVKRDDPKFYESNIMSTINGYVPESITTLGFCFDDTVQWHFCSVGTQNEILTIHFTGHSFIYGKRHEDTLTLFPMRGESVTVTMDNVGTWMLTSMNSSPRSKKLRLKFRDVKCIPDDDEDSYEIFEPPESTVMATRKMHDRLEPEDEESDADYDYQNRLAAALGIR
# Sequence of factor Xa assembled in the prothrombinase complex (Factor Xa, Factor Va, calcium and phospholipid) (P12259 1574-2224 partner limits assumed): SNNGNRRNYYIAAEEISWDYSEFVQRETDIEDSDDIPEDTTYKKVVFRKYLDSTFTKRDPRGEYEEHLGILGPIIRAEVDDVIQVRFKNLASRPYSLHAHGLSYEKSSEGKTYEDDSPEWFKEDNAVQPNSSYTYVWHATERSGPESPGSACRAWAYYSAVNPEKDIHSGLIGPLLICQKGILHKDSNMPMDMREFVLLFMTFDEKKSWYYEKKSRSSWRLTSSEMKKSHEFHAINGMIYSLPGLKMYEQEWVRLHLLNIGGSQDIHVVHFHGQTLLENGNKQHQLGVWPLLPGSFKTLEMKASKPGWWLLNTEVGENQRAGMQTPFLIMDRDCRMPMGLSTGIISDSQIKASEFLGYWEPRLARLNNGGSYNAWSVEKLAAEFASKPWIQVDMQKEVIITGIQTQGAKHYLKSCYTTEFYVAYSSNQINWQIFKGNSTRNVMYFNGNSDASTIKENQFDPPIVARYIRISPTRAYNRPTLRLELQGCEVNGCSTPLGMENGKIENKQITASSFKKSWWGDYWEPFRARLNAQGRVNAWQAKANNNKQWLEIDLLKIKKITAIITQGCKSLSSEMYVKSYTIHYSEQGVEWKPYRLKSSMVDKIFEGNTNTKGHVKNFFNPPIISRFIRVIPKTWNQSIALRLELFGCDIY
# [4] = test system: prothrombin fragments 1+2; conditions: highest dose regimen; cited from earlier work
# [5] = age 65 to 75 years, Ota. infusion 0.035 mg/Kg/h
# [6] = age 65 to 75 years, Ota. infusion 0.070 mg/Kg/h
# [7] = age 65 to 75 years, Ota. infusion 0.105 mg/Kg/h
# [8] = age 65 to 75 years, Ota. infusion 0.140 mg/Kg/h
# [9] = age 65 to 75 years, Ota. infusion 0.175 mg/Kg/h
# [10] = age <65 years, Ota. infusion 0.035 mg/Kg/h
# [11] = age <65 years, Ota. infusion 0.070 mg/Kg/h
# [12] = age <65 years, Ota. infusion 0.105 mg/Kg/h
# [13] = age <65 years, Ota. infusion 0.140 mg/Kg/h
# [14] = age <65 years, Ota. infusion 0.175 mg/Kg/h
# [15] = age older than 75 years, Ota. infusion 0.035 mg/Kg/h
# [16] = age older than 75 years, Ota. infusion 0.070 mg/Kg/h
# [17] = age older than 75 years, Ota. infusion 0.105 mg/Kg/h
# [18] = age older than 75 years, Ota. infusion 0.140 mg/Kg/h
# [19] = age older than 75 years, Ota. infusion 0.175 mg/Kg/h
# [20] = creatinine clearance 30 to 50 ml/min, Ota. infusion 0.070 mg/Kg/h
# [21] = creatinine clearance 30 to 50 ml/min, Ota. infusion 0.105 mg/Kg/h
# [22] = creatinine clearance 30 to 50 ml/min, Ota. infusion 0.140 mg/Kg/h
# [23] = creatinine clearance 30 to 50 ml/min, Ota. infusion 0.175 mg/Kg/h
# [24] = creatinine clearance 50 to 80 ml/min, Ota. infusion 0.035 mg/Kg/h
# [25] = creatinine clearance 50 to 80 ml/min, Ota. infusion 0.070 mg/Kg/h
# [26] = creatinine clearance 50 to 80 ml/min, Ota. infusion 0.105 mg/Kg/h
# [27] = creatinine clearance 50 to 80 ml/min, Ota. infusion 0.140 mg/Kg/h
# [28] = creatinine clearance 50 to 80 ml/min, Ota. infusion 0.175 mg/Kg/h
# [29] = creatinine clearance <30 ml/min, Ota. infusion 0.140 mg/Kg/h
# [30] = creatinine clearance more than 80 ml/min, Ota. infusion 0.035 mg/Kg/h
# [31] = creatinine clearance more than 80 ml/min, Ota. infusion 0.070 mg/Kg/h
# [32] = creatinine clearance more than 80 ml/min, Ota. infusion 0.105 mg/Kg/h
# [33] = creatinine clearance more than 80 ml/min, Ota. infusion 0.140 mg/Kg/h
# [34] = creatinine clearance more than 80 ml/min, Ota. infusion 0.175 mg/Kg/h
# [35] = dose arms from 0.105 to 0.175 mg/Kg/h (dose arm 3 to 5)
smiles,measurement,setting,value
"COC(=O)C(Cc1cccc(C(=N)N)c1)[C@@H](C)NC(=O)c1ccc(-c2cc[n+]([O-])cc2)cc1 (mixture of isomers) [Otamixaban, (2R,3R)-2-(3-Carbamimidoyl-benzyl)-3-[4-(1-oxy-pyridin-4-yl)benzoylamino]-butyric acid methyl ester]",patients who showed the endpoint of the study / patients in the group,[1]; [5],2/33
same,patients with endpoint in comparison with the whole number of patients in the group,[1]; [5],(6.1%)
same,patients who showed the endpoint of the study / patients in the group,[1]; [6],11/186
same,patients with endpoint in comparison with the whole number of patients in the group,[1]; [6],(5.9%)
same,patients who showed the endpoint of the study / patients in the group,[1]; [7],11/170
same,patients with endpoint in comparison with the whole number of patients in the group,[1]; [7],(6.5%)
same,patients who showed the endpoint of the study / patients in the group,[1]; [8],9/182
same,patients with endpoint in comparison with the whole number of patients in the group,[1]; [8],(4.9%)
same,patients who showed the endpoint of the study / patients in the group,[1]; [9],7/164
same,patients with endpoint in comparison with the whole number of patients in the group,[1]; [9],(4.3%)
same,patients who showed the endpoint of the study / patients in the group,[1]; [10],5/74
same,patients with endpoint in comparison with the whole number of patients in the group,[1]; [10],(6.8%)
same,patients who showed the endpoint of the study / patients in the group,[1]; [11],16/394
same,patients with endpoint in comparison with the whole number of patients in the group,[1]; [11],(4.1%)
same,patients who showed the endpoint of the study / patients in the group,[1]; [12],8/394
same,patients with endpoint in comparison with the whole number of patients in the group,[1]; [12],(2.0%)
same,patients who showed the endpoint of the study / patients in the group,[1]; [13],9/383
same,patients with endpoint in comparison with the whole number of patients in the group,[1]; [13],(2.3%)
same,patients who showed the endpoint of the study / patients in the group,[1]; [14],16/401
same,patients with endpoint in comparison with the whole number of patients in the group,[1]; [14],(4.0%)
same,patients who showed the endpoint of the study / patients in the group,[1]; [15],2/18
same,patients with endpoint in comparison with the whole number of patients in the group,[1]; [15],(11.1%)
same,patients who showed the endpoint of the study / patients in the group,[1]; [16],4/96
same,patients with endpoint in comparison with the whole number of patients in the group,[1]; [16],(4.2%)
same,patients who showed the endpoint of the study / patients in the group,[1]; [17],6/98
same,patients with endpoint in comparison with the whole number of patients in the group,[1]; [17],(6.1%)
same,patients who showed the endpoint of the study / patients in the group,[1]; [18],6/93
same,patients with endpoint in comparison with the whole number of patients in the group,[1]; [18],(6.5%)
same,patients who showed the endpoint of the study / patients in the group,[1]; [19],6/106
same,patients with endpoint in comparison with the whole number of patients in the group,[1]; [19],(5.7%)
same,patients who showed the endpoint of the study / patients in the group,"[1]; creatinine clearance 30 to 50 ml/min, Ota. infusion 0.035 mg/Kg/h",0/7
same,patients who showed the endpoint of the study / patients in the group,[1]; [20],5/54
same,patients with endpoint in comparison with the whole number of patients in the group,[1]; [20],(9.3%)
same,patients who showed the endpoint of the study / patients in the group,[1]; [21],8/46
same,patients with endpoint in comparison with the whole number of patients in the group,[1]; [21],(17.4%)
same,patients who showed the endpoint of the study / patients in the group,[1]; [22],4/46
same,patients with endpoint in comparison with the whole number of patients in the group,[1]; [22],(8.7%)
same,patients who showed the endpoint of the study / patients in the group,[1]; [23],3/48
same,patients with endpoint in comparison with the whole number of patients in the group,[1]; [23],(6.3%)
same,patients who showed the endpoint of the study / patients in the group,[1]; [24],5/29
same,patients with endpoint in comparison with the whole number of patients in the group,[1]; [24],(17.2%)
same,patients who showed the endpoint of the study / patients in the group,[1]; [25],9/188
same,patients with endpoint in comparison with the whole number of patients in the group,[1]; [25],(4.8%)
same,patients who showed the endpoint of the study / patients in the group,[1]; [26],5/189
same,patients with endpoint in comparison with the whole number of patients in the group,[1]; [26],(2.6%)
same,patients who showed the endpoint of the study / patients in the group,[1]; [27],6/192
same,patients with endpoint in comparison with the whole number of patients in the group,[1]; [27],(3.1%)
same,patients who showed the endpoint of the study / patients in the group,[1]; [28],8/178
same,patients with endpoint in comparison with the whole number of patients in the group,[1]; [28],(4.5%)
same,patients who showed the endpoint of the study / patients in the group,"[1]; creatinine clearance <30 ml/min, Ota. infusion 0.035 mg/Kg/h",0/2
same,patients who showed the endpoint of the study / patients in the group,"[1]; creatinine clearance <30 ml/min, Ota. infusion 0.070 mg/Kg/h",0/2
same,patients who showed the endpoint of the study / patients in the group,"[1]; creatinine clearance <30 ml/min, Ota. infusion 0.105 mg/Kg/h",0/0
same,patients who showed the endpoint of the study / patients in the group,[1]; [29],3/4
same,patients with endpoint in comparison with the whole number of patients in the group,[1]; [29],75.0%
same,patients who showed the endpoint of the study / patients in the group,"[1]; creatinine clearance <30 ml/min, Ota. infusion 0.175 mg/Kg/h",0/3
same,patients who showed the endpoint of the study / patients in the group,[1]; [30],3/79
same,patients with endpoint in comparison with the whole number of patients in the group,[1]; [30],(3.8%)
same,patients who showed the endpoint of the study / patients in the group,[1]; [31],14/382
same,patients with endpoint in comparison with the whole number of patients in the group,[1]; [31],(3.7%)
same,patients who showed the endpoint of the study / patients in the group,[1]; [32],10/378
same,patients with endpoint in comparison with the whole number of patients in the group,[1]; [32],(2.6%)
same,patients who showed the endpoint of the study / patients in the group,[1]; [33],9/372
same,patients with endpoint in comparison with the whole number of patients in the group,[1]; [33],(2.4%)
same,patients who showed the endpoint of the study / patients in the group,[1]; [34],14/392
same,patients with endpoint in comparison with the whole number of patients in the group,[1]; [34],(3.6%)
same,"subgroup analysis of clinical results (age, gender, creatinine clearance, body weight, management of the acute coronary syndrome)","[1]; demographic subgroups, baseline characteristics, invasive or medical management",consistency of the clinical results
same,anticoagulation based on rates of bailout and thrombotic complications,[1]; dose arms 0.035 mg/Kg/h and 0.070 mg/Kg/h (dose arms 1 and 2),inadequate anticoagulation
same,effect on urgent revascularization or need for bailout,[1]; [35],no demonstrable effect
same,rates of primary endpoint lower than UFH+Eptifibatide,[1]; [35],31-41%
same,efficacy in models of thrombosis,[2],highly efficacious
same,inhibition of factor Xa assembled in the prothrombinase complex,[3],inhibited
same,reduction of prothrombin fragments 1+2 versus unfractionated heparin,[4],reduced prothrombin fragments 1+2 significantly more than unfractionated heparin
